The values below come from patent publication US20090312349A1, “ANTI-INFLAMMATORY MEDICAMENTS” (priority 2004, published 2009).

Experiment [1] concerns the target T1, phospho p-38 alpha kinase (Homo sapiens, UniProt Q16539).
T1 construct: purchased Panvera
Briefly: P-38 alpha kinase assay (spectrophotometric, pyruvate kinase/lactate dehydrogenase coupled). It counts as biochemical. To be noted: Table 5; for IC50: assay not named, read-out: uM.

Experiment [2] deals with phosphorylated p-38-alpha kinase (Homo sapiens, UniProt Q16539). Briefly: P-38 alpha kinase assay P1. The note with it: Method P1; for IC50: 2 h pre-incubation before ATP; for Results, % @ concentration μM: @ 1.0 μM. It counts as biochemical.
For experiment [3], the target named is T2, B-Raf(V599E) kinase (Homo sapiens, UniProt P15056, V600E). Briefly: biochemical. The protocol:
(§1) The test compounds were incubated with the reaction mixture at 30° C. for 2 h. […] The reaction rate was calculated using the 1.5 h to 2.5 h time frame. […] IC50 values were calculated from a series of percent inhibition values determined at a range of inhibitor concentrations using software routines as implemented in the GraphPad Prism software package.
Same as assay B1 except that (1) construct 2 was employed at a nominal concentration of 2 nM (2) the reaction was pre-incubated at 30° C. for 1 h prior to initiation with ATP (3) a reading time frame of 0.5 h to 1.5 h.
Target sequence in this assay (P15056 433-726 V600E): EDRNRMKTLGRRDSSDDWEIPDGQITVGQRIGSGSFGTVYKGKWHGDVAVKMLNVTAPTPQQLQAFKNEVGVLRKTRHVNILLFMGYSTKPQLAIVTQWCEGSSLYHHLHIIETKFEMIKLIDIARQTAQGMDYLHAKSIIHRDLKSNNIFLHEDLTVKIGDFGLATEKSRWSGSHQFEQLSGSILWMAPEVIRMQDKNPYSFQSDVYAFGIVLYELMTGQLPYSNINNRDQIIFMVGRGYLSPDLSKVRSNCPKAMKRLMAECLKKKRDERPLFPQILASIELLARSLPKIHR

Experiment [4] addresses T3, KDR kinase (Homo sapiens, UniProt P35968, DEL940-989/E990V). The experiment can be described thus: KDR kinase assay K1. To be noted: for IC50: Method K1; for inhibition at 10 µM: read-out: Results, % @ concentration μM, Method K1. Format: biochemical. The procedure:
(§2) IC50 values were calculated from a series of percent inhibition values determined at a range of inhibitor concentrations using software routines as implemented in the GraphPad Prism software package.

Experiment [5] has as its target T2, B-Raf(V599E) kinase. Briefly: B-Raf(V599E) kinase assay B1. Format: biochemical. To be noted: Method B1; construct 1. The protocol:
as §1
Target sequence in this assay (P15056 with tags, fused parts or gaps V600E): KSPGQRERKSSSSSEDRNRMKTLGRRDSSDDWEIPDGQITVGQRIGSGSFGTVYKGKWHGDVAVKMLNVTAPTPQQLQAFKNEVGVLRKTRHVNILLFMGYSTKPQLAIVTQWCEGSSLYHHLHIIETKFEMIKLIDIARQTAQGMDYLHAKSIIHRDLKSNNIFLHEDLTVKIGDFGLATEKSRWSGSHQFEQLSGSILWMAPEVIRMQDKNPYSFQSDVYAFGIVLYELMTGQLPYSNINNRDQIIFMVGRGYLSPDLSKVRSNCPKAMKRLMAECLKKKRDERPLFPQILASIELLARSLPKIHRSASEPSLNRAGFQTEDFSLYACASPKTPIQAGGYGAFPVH

Experiment [6] addresses T4, Abl kinase (Homo sapiens, UniProt P00519).
T4 sequence (P00519 229-512): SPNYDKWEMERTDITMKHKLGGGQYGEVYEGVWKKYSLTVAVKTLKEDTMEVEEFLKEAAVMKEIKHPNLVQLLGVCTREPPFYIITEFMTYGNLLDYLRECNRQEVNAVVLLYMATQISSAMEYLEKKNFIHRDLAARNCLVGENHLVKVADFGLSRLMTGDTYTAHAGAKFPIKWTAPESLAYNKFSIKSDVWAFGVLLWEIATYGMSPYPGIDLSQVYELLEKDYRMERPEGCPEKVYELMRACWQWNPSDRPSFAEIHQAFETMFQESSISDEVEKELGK
Briefly: Abl kinase assay A2. Format: biochemical. To be noted: for IC50: Method A2, 2 h pre-incubation, 0.5 mM ATP. The procedure:
as §2

Experiment [7] concerns the target T3, KDR kinase. The experiment can be described thus: KDR kinase assay K2. To be noted: for inhibition at 1 µM: read-out: Results, % @ concentration μM.
The target of experiment [8] is T4, Abl kinase. The experiment can be described thus: Abl kinase assay A1. It counts as biochemical. To be noted: for inhibition at 10 µM: read-out: Results, % @ concentration μM, Method A1. The procedure: as §2
The mark [9] stands for this setting: read-out: Results, % @ concentration μM.

T1 sequence (Q16539 whole entry): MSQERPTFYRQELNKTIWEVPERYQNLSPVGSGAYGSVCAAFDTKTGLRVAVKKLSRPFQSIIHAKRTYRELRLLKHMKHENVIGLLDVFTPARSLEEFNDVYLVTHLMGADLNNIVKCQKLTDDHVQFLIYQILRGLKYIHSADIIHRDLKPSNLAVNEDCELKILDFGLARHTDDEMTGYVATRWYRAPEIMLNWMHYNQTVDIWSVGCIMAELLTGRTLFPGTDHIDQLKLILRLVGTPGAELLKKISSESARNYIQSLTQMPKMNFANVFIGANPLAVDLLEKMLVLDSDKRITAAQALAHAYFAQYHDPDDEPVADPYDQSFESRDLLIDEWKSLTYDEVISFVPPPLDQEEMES
Chain of phosphorylated p-38-alpha kinase (Q16539 1-360 isoform Q16539-2): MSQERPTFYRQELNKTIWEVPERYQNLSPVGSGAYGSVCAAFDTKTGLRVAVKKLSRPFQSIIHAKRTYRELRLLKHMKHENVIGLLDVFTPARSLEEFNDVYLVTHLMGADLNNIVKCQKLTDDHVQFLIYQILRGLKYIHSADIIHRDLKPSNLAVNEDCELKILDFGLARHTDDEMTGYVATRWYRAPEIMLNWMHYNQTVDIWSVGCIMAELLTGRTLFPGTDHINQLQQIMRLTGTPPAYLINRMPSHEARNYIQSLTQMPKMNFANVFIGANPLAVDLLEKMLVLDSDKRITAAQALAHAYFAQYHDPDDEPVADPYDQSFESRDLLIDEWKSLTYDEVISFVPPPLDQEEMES
T3 sequence (P35968 with tags, fused parts or gaps DEL940-989/E990V): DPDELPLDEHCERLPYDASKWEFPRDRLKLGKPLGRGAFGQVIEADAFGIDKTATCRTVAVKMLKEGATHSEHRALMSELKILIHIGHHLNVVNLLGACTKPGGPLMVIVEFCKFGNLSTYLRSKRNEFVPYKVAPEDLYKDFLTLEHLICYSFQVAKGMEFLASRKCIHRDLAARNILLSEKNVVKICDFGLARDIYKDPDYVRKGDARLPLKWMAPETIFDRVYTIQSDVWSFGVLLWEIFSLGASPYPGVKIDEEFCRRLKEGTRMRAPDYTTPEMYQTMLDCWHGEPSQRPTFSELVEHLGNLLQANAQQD

Regarding `O=C(O)Cc1cccc(-n2nc(-c3ccsc3)cc2NC(=O)Nc2cccc(Cl)c2Cl)c1` [Example 436, 2-(3-(5-(3-(2,3-dichlorophenyl)ureido)-3-(thiophen-3-yl)-1H-pyrazol-1-yl)phenyl)acetic acid], the “% @ concentration, uM” value in experiment [1] (@ 0.1 uM) worked out at 16%; in experiment [1] (@ 1 uM), 41%. In addition, the IC50 in experiment [2] was found to be 0.007 µM; in experiment [3] (Method B2, construct 2), 3.7 µM.

As for `NC(=O)Cc1cccc(-n2nc(C3CCCC3)cc2NC(=O)Nc2cccc(Cl)c2Cl)c1` [Example 446, 1-(1-(3-(2-amino-2-oxoethyl)phenyl)-3-cyclopentyl-1H-pyrazol-5-yl)-3-(2,3-dichlorophenyl)urea], the IC50 in experiment [2] turned out to be 0.005 µM; in experiment [4] it was 1.5 µM; in experiment [5], 0.016 µM; in experiment [6], 4.8 µM.

In the case of `O=C(Cc1ccc(-n2nc(-c3ccccc3F)cc2NC(=O)Nc2cccc(Cl)c2Cl)cc1)NC(CO)CO` [Example 473, 1-(2,3-dichlorophenyl)-3-(1-(4-(2-(1,3-dihydroxypropan-2-ylamino)-2-oxoethyl)phenyl)-3-(2-fluorophenyl)-1H-pyrazol-5-yl)urea], the IC50 was 0.004 µM in experiment [1] and 0.03 µM in experiment [2]. The inhibition at 10 µM in experiment [3] (setting [9]) was found to be 4%.

As for `O=C(Cc1cccc(-n2nc(C3CCCC3)cc2NC(=O)Nc2cccc(Cl)c2Cl)c1)NCC(O)CO` (centres unmarked) [Example 487, 1-(3-cyclopentyl-1-(3-(2-(2,3-dihydroxypropylamino)-2-oxoethyl)phenyl)-1H-pyrazol-5-yl)-3-(2,3-dichlorophenyl)urea], the IC50 in experiment [1] was 0.038 µM; in experiment [2], 0.006 µM. Moreover, the inhibition at 1 µM in experiment [7] turned out to be 20%.

Turning to `CC(Cc1cccc(-n2nc(-c3ccccc3F)cc2NC(=O)Nc2cccc(Cl)c2Cl)c1)C(N)=O` (centres unmarked) [Example 489, 1-(1-(3-(3-amino-2-methyl-3-oxopropyl)phenyl)-3-(2-fluorophenyl)-1H-pyrazol-5-yl)-3-(2,3-dichlorophenyl)urea], in experiment [1], the IC50 was 0.52 µM. Moreover, in experiment [7], the inhibition at 1 µM was 25%.

Regarding `CC(C)(C)c1cc(NC(=O)Nc2ccc(F)c(F)c2F)n(-c2cccc(CC(N)=O)c2)n1` [Example 491, 1-(1-(3-(2-amino-2-oxoethyl)phenyl)-3-tert-butyl-1H-pyrazol-5-yl)-3-(2,3,4-trifluorophenyl)urea], the IC50 in experiment [2] is 0.013 µM; in experiment [5], 0.007 µM. Besides, the inhibition at 10 µM in experiment [4] was determined as 77%; in experiment [6] (setting [9]) it was 78%.

Take `CC(C)(C)c1cc(NC(=O)Nc2ccc(F)cc2F)n(-c2ccc(CC(N)=O)cc2)n1` [Example 498, 1-(1-(4-(2-amino-2-oxoethyl)phenyl)-3-tert-butyl-1H-pyrazol-5-yl)-3-(2,4-difluorophenyl)urea]: the “% @ concentration, uM” value in experiment [1] (@ 1 uM) stood at 25% @1. The IC50 in experiment [2] is 0.041 µM; in experiment [5], 0.074 µM. Also, the figures for the inhibition at 10 µM in experiment [4] and in experiment [8] were 60% and 48%, respectively.

Turning to `CC(C)(C)c1cc(NC(=O)Nc2ccc(F)cc2F)n(-c2cccc(C#N)c2)n1` [Example 499, 1-(3-tert-butyl-1-(3-cyanophenyl)-1H-pyrazol-5-yl)-3-(2,4-difluorophenyl)urea], the “% @ concentration, uM” value in experiment [1] (@ 0.1 uM) was found to be 78%; in experiment [1] (@ 1 uM), 95%. In addition, the IC50 in experiment [2] is 0.046 µM; in experiment [4], 0.4 µM; in experiment [5], 0.026 µM. Further, in experiment [8], the inhibition at 10 µM is 88%.

On to `CC(C)(C)c1cc(NC(=O)Nc2cccc(Oc3cccnc3)c2)n(-c2cccc(CC(N)=O)c2)n1` [Example 500, 1-(1-(3-(2-amino-2-oxoethyl)phenyl)-3-tert-butyl-1H-pyrazol-5-yl)-3-(3-(pyridin-3-yloxy)phenyl)urea], for which the IC50 was 0.017 µM in experiment [2], 0.01 µM in experiment [5], 0.021 µM in experiment [6] and 9 nM in experiment [7].

Regarding `NC(=O)Cc1cccc(-n2nc(-c3cccs3)cc2NC(=O)Nc2cccc(Oc3cccnc3)c2)c1` [Example 502, 1-(1-(3-(2-amino-2-oxoethyl)phenyl)-3-(thiophen-2-yl)-1H-pyrazol-5-yl)-3-(3-(pyridin-3-yloxy)phenyl)urea], the IC50 turned out to be 3.1 µM in experiment [8] (Method A1, read-out: Results, μM (IC50)) and 1300 nM in experiment [7].

Turning to `NC(=O)Cc1cccc(-n2nc(C(F)(F)F)cc2NC(=O)Nc2cccc(Oc3cccnc3)c2)c1` [Example 503, 1-(1-(3-(2-amino-2-oxoethyl)phenyl)-3-(trifluoromethyl)-1H-pyrazol-5-yl)-3-(3-(pyridin-3-yloxy)phenyl)urea], the figures for the IC50 in experiment [5], in experiment [6] and in experiment [7] were 0.13 µM, 0.29 µM and 190 nM, respectively.

For `CNC(=O)c1cc(Oc2ccc(NC(=O)Nc3cc(C(C)(C)C)nn3-c3cccc(CC(N)=O)c3)cc2)ccn1` [Example 506, 1-(1-(3-(2-amino-2-oxoethyl)phenyl)-3-tert-butyl-1H-pyrazol-5-yl)-3-(4-(2-(methylcarbamoyl)pyridin-4-yloxy)phenyl)urea], the IC50 in experiment [1] turned out to be 0.042 µM; in experiment [2] it was 0.009 µM; in experiment [4], 0.021 µM; in experiment [5] it was 0.02 µM; in experiment [6] it was 0.0066 µM.

In the case of `CC(C)(C)c1cc(NC(=O)Nc2ccc(-c3cccc4c3CNC4=O)cc2)n(-c2cccc(CC(N)=O)c2)n1` [Example 510, 1-(1-(3-(2-amino-2-oxoethyl)phenyl)-3-tert-butyl-1H-pyrazol-5-yl)-3-(4-(1-oxoisoindolin-4-yl)phenyl)urea], the IC50 was found to be 0.47 µM in experiment [1]; 0.12 µM in experiment [2]; 0.007 µM in experiment [4]; 0.21 µM in experiment [5]; 0.062 µM in experiment [6].

Take `C=C1NS(=O)(=O)N(Cc2cccc(-n3nc(C(C)(C)C)cc3NC(=O)Nc3cccc(Cl)c3Cl)c2)C1=O` [Example 511, 1-{5-t-butyl-2-[3-(4-methylene-1,1,3-trioxo-[1,2,5]thiadiazolidin-2-ylmethyl)-phenyl]-2H-pyrazol-3-yl}-3-(2,3-dichlorophenyl)-urea]: the IC50 in experiment [1] worked out at 0.024 µM; in experiment [5], 1.7 µM; in experiment [6], 0.25 µM; in experiment [7] it was 14 nM.

Consider `NC(=O)Cc1cccc(-n2nc(C3CCCC3)cc2NC(=O)Nc2ccc(-c3cccc4c3CNC4=O)cc2)c1` [Example 512, 1-(1-(3-(2-amino-2-oxoethyl)phenyl)-3-cyclopentyl-1H-pyrazol-5-yl)-3-(4-(1-oxoisoindolin-4-yl)phenyl)urea], for which the results for the IC50 in experiment [1], in experiment [6] and in experiment [7] were 0.032 µM, 0.11 µM and 29 nM, respectively. Moreover, the “Results, % @ concentration μM” value in experiment [2] was 82% @1.0.

On to `Cn1c(=O)c(-c2cccc(NC(=O)Nc3cc(C(C)(C)C)nn3-c3cccc(CC(N)=O)c3)c2)cc2cncnc21` [Example 513, 1-(1-(3-(2-amino-2-oxoethyl)phenyl)-3-tert-butyl-1H-pyrazol-5-yl)-3-(3-(8-methyl-7-oxo-7,8-dihydropyrido[2,3-d]pyrimidin-6-yl)phenyl)urea], for which the IC50 in experiment [1] was 0.41 µM; in experiment [2], 0.012 µM; in experiment [5] it was 0.008 µM; in experiment [6], 0.023 µM.

As for `Cn1c(=O)c(-c2cccc(NC(=O)Nc3cc(C4CCCC4)nn3-c3cccc(CC(N)=O)c3)c2)cc2cncnc21` [Example 514, 1-(1-(3-(2-amino-2-oxoethyl)phenyl)-3-cyclopentyl-1H-pyrazol-5-yl)-3-(3-(8-methyl-7-oxo-7,8-dihydropyrido[2,3-d]pyrimidin-6-yl)phenyl)urea], the IC50 was determined as 0.57 µM in experiment [1], 0.011 µM in experiment [2], 0.077 µM in experiment [6] and 33 nM in experiment [7].

As for `Cc1ccc(NC(=O)Nc2cc(C(C)(C)C)nn2-c2cccc(CC(N)=O)c2)cc1Nc1ncccn1` [Example 515, 1-(1-(3-(2-amino-2-oxoethyl)phenyl)-3-tert-butyl-1H-pyrazol-5-yl)-3-(4-methyl-3-(pyrimidin-2-ylamino)phenyl)urea], the “Results, % @ concentration μM” value in experiment [2] is on record as 90% @1.0. Besides, in experiment [3] (setting [9]), the inhibition at 1 µM is 27%.

On to `Cc1ccc(NC(=O)Nc2cc(C(C)(C)C)nn2-c2cccc(CC(N)=O)c2)cc1Nc1nccc(-c2cccnc2)n1` [Example 516, 1-(1-(3-(2-amino-2-oxoethyl)phenyl)-3-tert-butyl-1H-pyrazol-5-yl)-3-(4-methyl-3-(4-(pyridin-3-yl)pyrimidin-2-ylamino)phenyl)urea], for which the IC50 in experiment [1] was found to be 0.45 µM; in experiment [5], 0.022 µM; in experiment [6], 0.0018 µM.
